Nine compounds from patent US6723841B2, “Corticotropin-releasing factor2 receptors” (priority 1994, dated 2004) can be followed below.

Ends that are not written are not given here. A value given as a limit tells only on which side of the number the result lay.

Holding throughout (format): cell-based
The target in one assay is T1, rat CRF2α receptor (Rattus norvegicus, UniProt P47866).
T1 construct: A full-length CRF2 receptor clone in pBluescriptSK- is isolated from the phage clone described above; expressed in transfected cells; host or cells: COS-7
T1 sequence (P47866 whole entry): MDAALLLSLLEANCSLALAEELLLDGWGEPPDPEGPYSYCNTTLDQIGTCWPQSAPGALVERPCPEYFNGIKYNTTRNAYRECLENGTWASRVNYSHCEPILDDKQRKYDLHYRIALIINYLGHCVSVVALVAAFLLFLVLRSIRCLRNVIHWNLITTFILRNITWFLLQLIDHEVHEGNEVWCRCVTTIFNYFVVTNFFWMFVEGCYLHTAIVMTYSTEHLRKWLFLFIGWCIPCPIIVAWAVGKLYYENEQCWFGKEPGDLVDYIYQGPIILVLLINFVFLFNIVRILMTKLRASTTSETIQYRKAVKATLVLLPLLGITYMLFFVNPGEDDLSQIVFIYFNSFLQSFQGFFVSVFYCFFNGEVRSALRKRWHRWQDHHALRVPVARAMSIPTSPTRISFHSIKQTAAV
As to the kind of experiment: cAMP accumulation in cells transfected with rat CRF2α receptor (FIG. 4). The protocol: For agonist testing, compounds are added to wells with buffer only in order to identify compounds with intrinsic activity. […] Compounds are then assessed for their ability to inhibit the CRF-stimulated cAMP production in the transfected cells. Briefly, cells are plated and grown in DMEM containing 10% fetal bovine serum for 2-4 days in 24-well plates at 37° C. On the day of assay, the medium is removed by vacuum aspiration and 100 μl of DMEM, 10 mM MgCl2, 1 mM isobutylmethylxanthine (a phosphodiesterase inhibitor to inhibit the breakdown of cAMP produced) and 0.1% BSA (pH 7.2) are added to each well. CRF, related peptides and organic test molecules are added to individual wells. The plates are incubated at 37° C. for a period of 1 hour. Following incubation, the wells are aspirated, rinsed once with PBS and aspirated again. 300 μl of 95% Ethanol and 20 mM HCl (EtOH/HCl) are then added to each well and the plates incubated at −20° C. overnight to extract the produced cAMP. The EtOH/HCl is removed, placed in 1.5 ml polypropylene eppendorf tubes and the wells washed with an additional 200 μl of EtOH/HCl and pooled with the initial sample. […]
In FIG. 4, the rat CRF2α receptor has been transfected into cells and cAMP accumulation is measured in response to the same drugs as shown in FIG. 3. […]
A general note: cAMP levels reflect the balance of adenylyl cyclase and phosphodiesterase activity.

Another assay deals with T2, human CRF1 receptor (Homo sapiens, UniProt P34998).
T2 construct: expressed in transfected cells
T2 sequence (P34998 24-415): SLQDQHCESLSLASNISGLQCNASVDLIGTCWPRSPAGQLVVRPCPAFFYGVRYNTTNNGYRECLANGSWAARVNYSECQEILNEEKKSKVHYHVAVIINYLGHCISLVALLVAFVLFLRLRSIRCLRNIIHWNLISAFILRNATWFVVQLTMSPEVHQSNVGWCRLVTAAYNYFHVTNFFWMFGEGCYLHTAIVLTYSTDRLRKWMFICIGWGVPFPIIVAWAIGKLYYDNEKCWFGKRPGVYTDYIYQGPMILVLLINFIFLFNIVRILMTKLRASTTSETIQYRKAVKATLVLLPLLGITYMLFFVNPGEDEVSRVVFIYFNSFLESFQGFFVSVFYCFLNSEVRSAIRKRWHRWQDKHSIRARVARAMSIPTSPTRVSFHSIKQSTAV
As to the kind of experiment: cAMP assay (adenylate cyclase stimulation) in cells transfected with CRF1 receptor. To be noted: for cAMP accumulation in cells transfected with the CRF1 receptor: FIG. 3; for EC50: transfected cells, cAMP production, read-out: effective concentration of one-half maximal adenylate cyclase stimulation (EC50), human CRF1 receptor.

In a further assay the test system is human CRF2α receptor. As to the kind of experiment: cAMP assay (adenylate cyclase stimulation) in cells transfected with CRF2α receptor. The settings on record: cAMP production, read-out: effective concentration of one-half maximal adenylate cyclase stimulation (EC50), human CRF2α receptor. As to the method:
For agonist testing, compounds are added to wells with buffer only in order to identify compounds with intrinsic activity. […] Compounds are then assessed for their ability to inhibit the CRF-stimulated cAMP production in the transfected cells. Briefly, cells are plated and grown in DMEM containing 10% fetal bovine serum for 2-4 days in 24-well plates at 37° C. On the day of assay, the medium is removed by vacuum aspiration and 100 μl of DMEM, 10 mM MgCl2, 1 mM isobutylmethylxanthine (a phosphodiesterase inhibitor to inhibit the breakdown of cAMP produced) and 0.1% BSA (pH 7.2) are added to each well. CRF, related peptides and organic test molecules are added to individual wells. The plates are incubated at 37° C. for a period of 1 hour. Following incubation, the wells are aspirated, rinsed once with PBS and aspirated again. 300 μl of 95% Ethanol and 20 mM HCl (EtOH/HCl) are then added to each well and the plates incubated at −20° C. overnight to extract the produced cAMP. The EtOH/HCl is removed, placed in 1.5 ml polypropylene eppendorf tubes and the wells washed with an additional 200 μl of EtOH/HCl and pooled with the initial sample. All samples are dried in a Speed-Vac (Savant Instruments, Farmingdale N.Y.) and either stored at −20° C. until use or reconstituted with 500 μl of sodium acetate buffer pH 7.5 and assayed immediately for cAMP concentration using a radioimmunoassay kit from Biomedical Technologies Inc. (Stoughton Mass.) according to manufacturers instructions.
The above results have been formulated below in Table I, wherein the effective concentration of one-half maximal adenylate cyclase stimulation (EC50) are presented.

The target in another assay is T3, rat CRF2β receptor (Rattus norvegicus, UniProt P47866).
T3 construct: A full-length CRF2 receptor clone in pBluescriptSK- is isolated from the phage clone described above; expressed in transfected cells; host or cells: COS-7
T3 sequence (P47866 1-431 isoform P47866-2): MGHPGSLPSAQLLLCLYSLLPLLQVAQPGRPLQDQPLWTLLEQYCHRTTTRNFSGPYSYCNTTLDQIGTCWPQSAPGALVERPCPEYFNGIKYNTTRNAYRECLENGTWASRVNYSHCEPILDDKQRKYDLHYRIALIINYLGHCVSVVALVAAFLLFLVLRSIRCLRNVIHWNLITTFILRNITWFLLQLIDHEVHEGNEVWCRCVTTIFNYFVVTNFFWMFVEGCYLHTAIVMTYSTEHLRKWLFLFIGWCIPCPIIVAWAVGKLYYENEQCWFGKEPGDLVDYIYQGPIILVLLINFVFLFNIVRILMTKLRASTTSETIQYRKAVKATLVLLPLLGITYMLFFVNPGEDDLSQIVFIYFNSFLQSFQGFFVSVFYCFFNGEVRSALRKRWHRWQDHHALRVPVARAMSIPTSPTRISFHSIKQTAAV
The experiment in a line: cAMP assay (adenylate cyclase stimulation) in cells transfected with CRF2β receptor. To be noted: cAMP production, read-out: effective concentration of one-half maximal adenylate cyclase stimulation (EC50), rat CRF2β receptor.

Procedure for human CRF1 receptor: (§1) For agonist testing, compounds are added to wells with buffer only in order to identify compounds with intrinsic activity. […] Briefly, cells are plated and grown in DMEM containing 10% fetal bovine serum for 2-4 days in 24-well plates at 37° C. On the day of assay, the medium is removed by vacuum aspiration and 100 μl of DMEM, 10 mM MgCl2, 1 mM isobutylmethylxanthine (a phosphodiesterase inhibitor to inhibit the breakdown of cAMP produced) and 0.1% BSA (pH 7.2) are added to each well. […] The plates are incubated at 37° C. for a period of 1 hour. Following incubation, the wells are aspirated, rinsed once with PBS and aspirated again. 300 μl of 95% Ethanol and 20 mM HCl (EtOH/HCl) are then added to each well and the plates incubated at −20° C. overnight to extract the produced cAMP. The EtOH/HCl is removed, placed in 1.5 ml polypropylene eppendorf tubes and the wells washed with an additional 200 μl of EtOH/HCl and pooled with the initial sample. All samples are dried in a Speed-Vac (Savant Instruments, Farmingdale N.Y.) and either stored at −20° C. until use or reconstituted with 500 μl of sodium acetate buffer pH 7.5 and assayed immediately for cAMP concentration using a radioimmunoassay kit from Biomedical Technologies Inc. (Stoughton Mass.) according to manufacturers instructions.
Procedure for rat CRF2β receptor: as §1

Consider “NDDPPISIDLTFHLLRNMIEMARIENEREQAGLNRKYLDEV-NH2 (C-terminus assumed) [Urotensin I]”, for which the “relative potency at stimulating cAMP, rat CRF2α receptor” value on rat CRF2α receptor is reported as “more potent than either oCRF or r/hCRF”. Moreover, the “cAMP accumulation in cells transfected with the CRF1 receptor” value on human CRF1 receptor is listed as “dose-dependent increase in cAMP”. The EC50 with human CRF2α receptor was found to be 2 nM.

Regarding “d-Phe r/hCRF(12-41): CRF receptor antagonist peptide”, the EC50 with human CRF1 receptor and with human CRF2α receptor was above 1000 nM throughout.

Regarding `CC[C@H](C)[C@H](NC(=O)[C@H](CO)NC(=O)[C@H](CC(N)=O)NC(=O)[C@H](CC(C)C)NC(=O)[C@H](Cc1ccc(O)cc1)NC(=O)[C@H](CCCCN)NC(=O)[C@H](CCCCN)NC(=O)[C@@H](NC(=O)[C@H](C)NC(=O)[C@H](CCSC)NC(=O)[C@H](CCC(N)=O)NC(=O)[C@H](CCCCN)NC(=O)[C@H](CCCNC(=N)N)NC(=O)[C@H](CC(C)C)NC(=O)[C@H](CCCNC(=N)N)NC(=O)[C@@H](NC(=O)[C@H](Cc1ccc(O)cc1)NC(=O)[C@H](CC(N)=O)NC(=O)[C@H](CC(=O)O)NC(=O)[C@@H](NC(=O)[C@H](Cc1ccccc1)NC(=O)[C@@H](NC(=O)[C@H](C)NC(=O)[C@H](CC(=O)O)NC(=O)[C@H](CO)NC(=O)[C@@H](N)Cc1c[nH]cn1)C(C)C)[C@@H](C)O)[C@@H](C)O)C(C)C)C(=O)N[C@@H](CC(C)C)C(=O)N[C@@H](CC(N)=O)C(N)=O` [VIP], the EC50 with human CRF2α receptor is above 1000 nM.

In the case of oCRF, the “cAMP accumulation in cells transfected with the CRF1 receptor” value at human CRF1 receptor is “dose-dependent increase in cAMP”. The EC50 with human CRF2α receptor worked out at 80 nM.

On to `N=C(N)NCCC[C@H](NC(=O)[C@@H]1CCCN1C(=O)[C@@H]1CSSC[C@H](N)C(=O)N[C@@H](Cc2ccc(O)cc2)C(=O)N[C@@H](Cc2ccccc2)C(=O)N[C@@H](CCC(N)=O)C(=O)N[C@@H](CC(N)=O)C(=O)N1)C(=O)NCC(N)=O` [AVP], for which, in the assay with human CRF2α receptor, the EC50 is above 1000 nM.

In the case of `CC[C@H](C)[C@H](NC(=O)[C@@H](NC(=O)[C@H](CC(=O)O)NC(=O)[C@H](CC(C)C)NC(=O)[C@H](CC(C)C)NC(=O)[C@H](CC(C)C)NC(=O)[C@H](CCCNC(=N)N)NC(=O)[C@H](CC(N)=O)NC(=O)[C@H](CC(N)=O)NC(=O)[C@H](C)NC(=O)[C@H](C)NC(=O)[C@H](CCC(N)=O)NC(=O)[C@H](CCC(N)=O)NC(=O)[C@H](CCCCN)NC(=O)[C@H](CCC(=O)O)NC(=O)[C@H](CCCCN)NC(=O)[C@H](CCC(=O)O)NC(=O)[C@H](CCC(N)=O)NC(=O)[C@H](CCCCN)NC(=O)[C@H](CCC(=O)O)NC(=O)[C@@H](NC(=O)[C@H](CCC(=O)O)NC(=O)[C@@H](NC(=O)[C@H](CCSC)NC(=O)[C@H](CCCCN)NC(=O)[C@H](CCCNC(=N)N)NC(=O)[C@H](CC(C)C)NC(=O)[C@H](CC(C)C)NC(=O)[C@H](CCC(=O)O)NC(=O)[C@H](CC(C)C)NC(=O)[C@H](CO)NC(=O)[C@H](CC(C)C)NC(=O)[C@H](CC(=O)O)NC(=O)[C@@H](NC(=O)[C@H](CO)NC(=O)[C@@H](NC(=O)[C@@H]1CCCN1C(=O)[C@@H]1CCCN1C(=O)CNC(=O)[C@@H]1CCC(=O)N1)[C@@H](C)CC)[C@@H](C)CC)[C@@H](C)CC)[C@@H](C)CC)[C@@H](C)O)C(N)=O` [Sauvagine], the “relative potency at stimulating cAMP, rat CRF2α receptor” value at rat CRF2α receptor is reported as “more potent than either oCRF or r/hCRF”. The EC50 in the assay with human CRF2α receptor was 0.5 nM; on rat CRF2β receptor, 0.4 nM.

As to `CC[C@H](C)[C@H](NC(=O)[C@H](C)NC(=O)[C@H](CC(=O)O)NC(=O)[C@H](C)NC(=O)[C@@H](N)Cc1ccc(O)cc1)C(=O)N[C@@H](Cc1ccccc1)C(=O)N[C@H](C(=O)N[C@@H](CC(N)=O)C(=O)N[C@@H](CO)C(=O)N[C@@H](Cc1ccc(O)cc1)C(=O)N[C@@H](CCCNC(=N)N)C(=O)N[C@@H](CCCCN)C(=O)N[C@H](C(=O)N[C@@H](CC(C)C)C(=O)NCC(=O)N[C@@H](CCC(N)=O)C(=O)N[C@@H](CC(C)C)C(=O)N[C@@H](CO)C(=O)N[C@@H](C)C(=O)N[C@@H](CCCNC(=N)N)C(=O)N[C@@H](CCCCN)C(=O)N[C@@H](CC(C)C)C(=O)N[C@@H](CC(C)C)C(=O)N[C@@H](CCC(N)=O)C(=O)N[C@@H](CC(=O)O)C(=O)N[C@H](C(=O)N[C@@H](CCSC)C(=O)N[C@@H](CO)C(=O)N[C@@H](CCCNC(=N)N)C(=O)N[C@@H](CCC(N)=O)C(=O)N[C@@H](CCC(N)=O)C(=O)NCC(=O)N[C@@H](CCC(=O)O)C(=O)N[C@@H](CO)C(=O)N[C@@H](CC(N)=O)C(=O)N[C@@H](CCC(N)=O)C(=O)N[C@@H](CCC(=O)O)C(=O)N[C@@H](CCCNC(=N)N)C(=O)NCC(=O)N[C@@H](C)C(=O)N[C@@H](CCCNC(=N)N)C(=O)N[C@@H](C)C(=O)N[C@@H](CCCNC(=N)N)C(=O)N[C@@H](CC(C)C)C(N)=O)[C@@H](C)CC)C(C)C)[C@@H](C)O` [hGRF], the EC50 on human CRF1 receptor and in the assay on human CRF2α receptor was above 1000 nM throughout.

Take “DLTFHLLREMLEMAKAEQEAEQAALNRLLLEEA-NH2 (C-terminus assumed) [α-helical oCRF(9-41)]”: the EC50 in the assay with human CRF2α receptor is above 1000 nM.

On to “ISLDLTFHLLREVLEMARAEQLAQQAHS [r/hCRF(6-33)]”, for which the EC50 at human CRF1 receptor and with human CRF2α receptor was above 1000 nM throughout.
